Results reported in the supplement of paper PMC10307832.

Columns and labels:
Test in all cases: relative viability (nuclei count vs DMSO), 5 days (fraction); higher = more cells survive
[1] = tested on: NCI-H1623
Procedure, shortened: (§1)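 Relative viability equals treated-well nuclei counts divided by vehicle-well nuclei counts. Counts came from 4× images of lung cancer cell lines grown in 1536-well plates for 5 days after pin-tool dosing on the day after seeding. Dosing used one drug alone or a fixed anchor-drug dose plus five library-drug doses (not always all listed) in √10 steps, and values are medians of duplicate plates.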

[2] = tested on: A549
Procedure, shortened: as §1

[3] = tested on: NCI-H2023
Procedure, shortened: as §1

[4] = tested on: NCI-H520
Procedure, shortened: as §1

[5] = tested on: NCI-H2170
Procedure, shortened: as §1

[6] = tested on: NCI-H727
Procedure, shortened: as §1

In the case of `Cc1cn(-c2cc(NC(=O)c3ccc(C)c(Nc4nccc(-c5cccnc5)n4)c3)cc(C(F)(F)F)c2)cn1` [Nilotinib] + N=C(N)NC(=N)NCCc1ccccc1 [Phenformin] (partner 250 µM), the relative viability ([1]; first compound 0.001 µM) is reported as 0.578, the relative viability ([1]; first compound 0.003162 µM) is reported as 0.585 and the relative viability ([1]; first compound 0.01 µM) is reported as 0.605. The relative viability ([1]; first compound 0.03162 µM) was 0.566, the relative viability ([1]; first compound 0.1 µM) was 0.601 and the relative viability ([2]; first compound 0.001 µM) was 0.147. It also gave a relative viability ([2]; first compound 0.003162 µM) of 0.27, a relative viability ([2]; first compound 0.01 µM) of 0.274 and a relative viability ([2]; first compound 0.03162 µM) of 0.172. It also gave a relative viability ([2]; first compound 0.1 µM) of 0.14, a relative viability ([3]; first compound 0.001 µM) of 0.461 and a relative viability ([3]; first compound 0.003162 µM) of 0.455. It also gave a relative viability ([3]; first compound 0.01 µM) of 0.571, a relative viability ([3]; first compound 0.03162 µM) of 0.325 and a relative viability ([3]; first compound 0.1 µM) of 0.361. It also gave a relative viability ([4]; first compound 0.001 µM) of 0.707, a relative viability ([4]; first compound 0.01 µM) of 0.655 and a relative viability ([4]; first compound 0.03162 µM) of 0.447. The relative viability ([4]; first compound 0.1 µM) was 0.428, the relative viability ([5]; first compound 0.001 µM) was 0.408 and the relative viability ([5]; first compound 0.003162 µM) was 0.432. For the same compound, the relative viability ([5]; first compound 0.01 µM) was 0.409, the relative viability ([5]; first compound 0.03162 µM) was 0.394 and the relative viability ([5]; first compound 0.1 µM) was 0.363. For the same compound, the relative viability ([6]; first compound 0.001 µM) was 0.579, the relative viability ([6]; first compound 0.003162 µM) was 0.577 and the relative viability ([6]; first compound 0.01 µM) was 0.419. It also gave a relative viability ([6]; first compound 0.03162 µM) of 0.379 and a relative viability ([6]; first compound 0.1 µM) of 0.346.
`CN1CCN(CCOc2cc(OC3CCOCC3)c3c(Nc4c(Cl)ccc5c4OCO5)ncnc3c2)CC1` [Saracatinib] + N=C(N)NC(=N)NCCc1ccccc1 [Phenformin] (partner 250 µM) was tested, and the relative viability ([1]; first compound 0.02 µM) was 0.619, the relative viability ([1]; first compound 0.2 µM) was 0.53 and the relative viability ([1]; first compound 0.6325 µM) was 0.297. The relative viability ([1]; first compound 2 µM) was 0.395, the relative viability ([2]; first compound 0.02 µM) was 0.161 and the relative viability ([2]; first compound 0.2 µM) was 0.121. For the same compound, the relative viability ([2]; first compound 0.6325 µM) was 0.156, the relative viability ([2]; first compound 2 µM) was 0.154 and the relative viability ([3]; first compound 0.02 µM) was 0.448. The relative viability ([3]; first compound 0.2 µM) was 0.303, the relative viability ([3]; first compound 0.6325 µM) was 0.236 and the relative viability ([3]; first compound 2 µM) was 0.257. For the same compound, the relative viability ([4]; first compound 0.02 µM) was 0.687, the relative viability ([4]; first compound 0.6325 µM) was 0.441 and the relative viability ([4]; first compound 2 µM) was 0.291. It also gave a relative viability ([5]; first compound 0.02 µM) of 0.396, a relative viability ([5]; first compound 0.2 µM) of 0.332 and a relative viability ([5]; first compound 0.6325 µM) of 0.352. It also gave a relative viability ([5]; first compound 2 µM) of 0.295, a relative viability ([6]; first compound 0.02 µM) of 0.535 and a relative viability ([6]; first compound 0.2 µM) of 0.238. It also gave a relative viability ([6]; first compound 0.6325 µM) of 0.465 and a relative viability ([6]; first compound 2 µM) of 0.316.
For `Cc1csc(=NC2CCCCC2)n1/N=C/c1ccc(O)c(O)c1O` [MIM1] + Cc1nc(Nc2ncc(C(=O)Nc3c(C)cccc3Cl)s2)cc(N2CCN(CCO)CC2)n1 [Dasatinib] (partner 0.075 µM), the relative viability ([1]; first compound 0.2 µM) was 0.594, the relative viability ([1]; first compound 0.6325 µM) was 0.476 and the relative viability ([1]; first compound 2 µM) was 0.498. It also gave a relative viability ([1]; first compound 6.325 µM) of 0.536, a relative viability ([1]; first compound 20 µM) of 0.299 and a relative viability ([3]; first compound 0.2 µM) of 0.519. The relative viability ([3]; first compound 0.6325 µM) was 0.719, the relative viability ([3]; first compound 2 µM) was 0.435 and the relative viability ([3]; first compound 6.325 µM) was 0.249. It also gave a relative viability ([3]; first compound 20 µM) of 0.0702, a relative viability ([4]; first compound 0.2 µM) of 0.19 and a relative viability ([4]; first compound 0.6325 µM) of 0.21. It also gave a relative viability ([4]; first compound 2 µM) of 0.286, a relative viability ([4]; first compound 6.325 µM) of 0.18 and a relative viability ([4]; first compound 20 µM) of 0.192. It also gave a relative viability ([5]; first compound 0.2 µM) of 0.569, a relative viability ([5]; first compound 0.6325 µM) of 0.498 and a relative viability ([5]; first compound 2 µM) of 0.73. For the same compound, the relative viability ([5]; first compound 6.325 µM) was 0.382, the relative viability ([5]; first compound 20 µM) was 0.172 and the relative viability ([6]; first compound 0.2 µM) was 0.383. It also gave a relative viability ([6]; first compound 0.6325 µM) of 0.36, a relative viability ([6]; first compound 2 µM) of 0.276 and a relative viability ([6]; first compound 6.325 µM) of 0.356. For the same compound, the relative viability ([6]; first compound 20 µM) was 0.267.
Compound `Cc1csc(=NC2CCCCC2)n1/N=C/c1ccc(O)c(O)c1O` [MIM1] + CCNC(=O)c1noc(-c2cc(C(C)C)c(O)cc2O)c1-c1ccc(CN2CCOCC2)cc1 [Luminespib] (partner 0.01 µM) has a relative viability ([1]; first compound 0.2 µM) of 0.522, a relative viability ([1]; first compound 0.6325 µM) of 0.472 and a relative viability ([1]; first compound 2 µM) of 0.437. The relative viability ([1]; first compound 6.325 µM) was 0.446, the relative viability ([1]; first compound 20 µM) was 0.404 and the relative viability ([3]; first compound 0.2 µM) was 0.791. It also gave a relative viability ([3]; first compound 0.6325 µM) of 0.691, a relative viability ([3]; first compound 2 µM) of 0.646 and a relative viability ([3]; first compound 6.325 µM) of 0.388. The relative viability ([3]; first compound 20 µM) was 0.07, the relative viability ([4]; first compound 0.2 µM) was 0.208 and the relative viability ([4]; first compound 0.6325 µM) was 0.259. It also gave a relative viability ([4]; first compound 2 µM) of 0.178, a relative viability ([4]; first compound 6.325 µM) of 0.274 and a relative viability ([4]; first compound 20 µM) of 0.257. It also gave a relative viability ([5]; first compound 0.2 µM) of 0.707, a relative viability ([5]; first compound 0.6325 µM) of 0.497 and a relative viability ([5]; first compound 2 µM) of 0.729. For the same compound, the relative viability ([5]; first compound 6.325 µM) was 0.473, the relative viability ([5]; first compound 20 µM) was 0.434 and the relative viability ([6]; first compound 0.2 µM) was 0.353. It also gave a relative viability ([6]; first compound 0.6325 µM) of 0.309, a relative viability ([6]; first compound 2 µM) of 0.386 and a relative viability ([6]; first compound 6.325 µM) of 0.386. It also gave a relative viability ([6]; first compound 20 µM) of 0.392.
`CCNC(=O)c1noc(-c2cc(C(C)C)c(O)cc2O)c1-c1ccc(CN2CCOCC2)cc1` [Luminespib] + N=C(N)NC(=N)NCCc1ccccc1 [Phenformin] (partner 250 µM) gave a relative viability ([1]; first compound 0.002 µM) of 0.55, a relative viability ([1]; first compound 0.006325 µM) of 0.536 and a relative viability ([1]; first compound 0.02 µM) of 0.493. For the same compound, the relative viability ([1]; first compound 0.06325 µM) was 0.407, the relative viability ([1]; first compound 0.2 µM) was 0.307 and the relative viability ([2]; first compound 0.002 µM) was 0.166. It also gave a relative viability ([2]; first compound 0.006325 µM) of 0.132, a relative viability ([2]; first compound 0.02 µM) of 0.0856 and a relative viability ([2]; first compound 0.06325 µM) of 0.0194. The relative viability ([2]; first compound 0.2 µM) was 0.0225, the relative viability ([3]; first compound 0.002 µM) was 0.39 and the relative viability ([3]; first compound 0.006325 µM) was 0.376. The relative viability ([3]; first compound 0.02 µM) was 0.287, the relative viability ([3]; first compound 0.06325 µM) was 0.0664 and the relative viability ([3]; first compound 0.2 µM) was 0.0658. It also gave a relative viability ([4]; first compound 0.002 µM) of 0.634, a relative viability ([4]; first compound 0.006325 µM) of 0.537 and a relative viability ([4]; first compound 0.02 µM) of 0.248. The relative viability ([4]; first compound 0.06325 µM) was 0.138, the relative viability ([4]; first compound 0.2 µM) was 0.191 and the relative viability ([5]; first compound 0.002 µM) was 0.405. It also gave a relative viability ([5]; first compound 0.006325 µM) of 0.398, a relative viability ([5]; first compound 0.02 µM) of 0.376 and a relative viability ([5]; first compound 0.06325 µM) of 0.236. It also gave a relative viability ([5]; first compound 0.2 µM) of 0.158, a relative viability ([6]; first compound 0.002 µM) of 0.564 and a relative viability ([6]; first compound 0.006325 µM) of 0.398. For the same compound, the relative viability ([6]; first compound 0.02 µM) was 0.361, the relative viability ([6]; first compound 0.06325 µM) was 0.318 and the relative viability ([6]; first compound 0.2 µM) was 0.175.
In the case of `Cc1csc(=NC2CCCCC2)n1/N=C/c1ccc(O)c(O)c1O` [MIM1] + N=C(N)NC(=N)NCCc1ccccc1 [Phenformin] (partner 250 µM), the relative viability ([1]; first compound 0.2 µM) is reported as 0.561, the relative viability ([1]; first compound 0.6325 µM) is reported as 0.428 and the relative viability ([1]; first compound 2 µM) is reported as 0.587. It also gave a relative viability ([1]; first compound 6.325 µM) of 0.562, a relative viability ([1]; first compound 20 µM) of 0.374 and a relative viability ([2]; first compound 0.2 µM) of 0.164. For the same compound, the relative viability ([2]; first compound 0.6325 µM) was 0.108, the relative viability ([2]; first compound 2 µM) was 0.144 and the relative viability ([2]; first compound 6.325 µM) was 0.108. It also gave a relative viability ([2]; first compound 20 µM) of 0.0481, a relative viability ([3]; first compound 0.2 µM) of 0.417 and a relative viability ([3]; first compound 0.6325 µM) of 0.416. The relative viability ([3]; first compound 2 µM) was 0.294, the relative viability ([3]; first compound 6.325 µM) was 0.127 and the relative viability ([3]; first compound 20 µM) was 0.0931. The relative viability ([4]; first compound 0.2 µM) was 0.793, the relative viability ([4]; first compound 0.6325 µM) was 0.512 and the relative viability ([4]; first compound 2 µM) was 0.561. It also gave a relative viability ([4]; first compound 6.325 µM) of 0.447, a relative viability ([4]; first compound 20 µM) of 0.323 and a relative viability ([5]; first compound 0.2 µM) of 0.407. For the same compound, the relative viability ([5]; first compound 0.6325 µM) was 0.406, the relative viability ([5]; first compound 2 µM) was 0.414 and the relative viability ([5]; first compound 6.325 µM) was 0.264. The relative viability ([5]; first compound 20 µM) was 0.172, the relative viability ([6]; first compound 0.2 µM) was 0.513 and the relative viability ([6]; first compound 0.6325 µM) was 0.559. It also gave a relative viability ([6]; first compound 2 µM) of 0.481, a relative viability ([6]; first compound 6.325 µM) of 0.561 and a relative viability ([6]; first compound 20 µM) of 0.301.
